{"source": "patent US12606557B2", "about": "“Substituted indoles with inhibitory activity” (UNIVERSITY OF PITTSBURGH—OF THE COMMONWEALTH SYSTEM OF …, priority 2020, dated 2026)", "test": "Blood pharmacokinetics after a single intraperitoneal dose", "type": "in vivo, male CD1 mice", "conditions": "for blood concentrations quantifiable up to: 1 animal out of 3, LLOQ 10.04 ng/mL; for concentration at 0.08 hr / concentration at 0.25 hr / concentration at 0.5 hr / concentration at 1 hr / concentration at 2 hr / concentration at 4 hr / concentration at 8 hr / concentration at 24 hr / AUC(0-inf) / AUC(0-t) / Cmax / Tmax: male, CD1, mouse, in vivo; for concentration at 24 hr: value excluded from data analysis; for AUC(0-inf) / AUC(0-t) / Cmax / Tmax: blood, mean", "experimental": "The objective of this example was to investigate the blood pharmacokinetics of UPHH-123 in male CD1 mice following a single intraperitoneal dose administration. Eighteen male CD1 mice were divided in two groups as, Group 1 and Group 2 comprising nine mice in each group.\nAnimals in Group 1 were administered intraperitoneally with UPHH-123 solution formulation in 5% NMP, 5% Solutol HS, 30% PEG-400 and 60% normal saline at 10.4 mg/kg dose. Animals in Group 2 were administered intraperitoneally with UPHH-123 solution formulation in 5% NMP, 5% Solutol HS, 30% PEG-400 and 60% normal saline) at 52 mg/kg dose.\nBlood samples (approximately 120 μL) were collected at pre-dose, 0.08, 0.25, 0.5, 1, 2, 4, 8 and 24 hr. The blood samples were collected at each time point in a labeled micro centrifuge tube containing K2EDTA as anticoagulant. Immediately aliquot (50 μL) of blood was hemolyzed with equal volume of water (50 μL) and quenched with three volume (150 μL) of acetonitrile (IS containing acetonitrile) and samples were stored below −70° C. until bioanalysis. All samples were processed for analysis by protein precipitation using acetonitrile (ACN) and analyzed with fit for purpose LC/MS/MS method (LLOQ: 10.04 ng/mL for UPHH-123 in blood). Pharmacokinetic parameters were calculated using the non-compartmental analysis tool of Phoenix WinNonlin (Version 7.0). Mean pharmacokinetic parameters are summarized below: […]", "note": "“And” between values parts separate entries of the source, which are not always exact repeats. Equal values may be shown once. Read-outs that look alike come from different tables or passages of the source."}
{"smiles": "COc1ccc(Cn2ccc3ccc(C(=O)NO)cc32)cc1", "note": "[UPHH-123]", "values": [{"measurement": "blood concentrations quantifiable up to", "setting": "10.4 mg/kg IP", "result": "up to 24 hr"}, {"measurement": "Blood Concentration, individual animal", "setting": "10.4 mg/kg IP, 0.08 hr", "result": "2082.46 ng/mL and 2293.56 ng/mL"}, {"measurement": "Blood Concentration, individual animal", "setting": "10.4 mg/kg IP, 0.25 hr", "result": "2572.69 ng/mL and 4414.44 ng/mL"}, {"measurement": "Blood Concentration, individual animal", "setting": "10.4 mg/kg IP, 0.5 hr", "result": "675.87 ng/mL and 848.67 ng/mL"}, {"measurement": "Blood Concentration, individual animal", "setting": "10.4 mg/kg IP, 1 hr", "result": "105.72 ng/mL and 180.27 ng/mL"}, {"measurement": "Blood Concentration, individual animal", "setting": "10.4 mg/kg IP, 2 hr", "result": "39.90 ng/mL and 98.73 ng/mL and 125.25 ng/mL"}, {"measurement": "Blood Concentration, individual animal", "setting": "10.4 mg/kg IP, 4 hr", "result": "47.81 ng/mL and 118.38 ng/mL and 92.93 ng/mL"}, {"measurement": "Blood Concentration, individual animal", "setting": "10.4 mg/kg IP, 8 hr", "result": "26.21 ng/mL and 17.80 ng/mL"}, {"measurement": "Blood Concentration, individual animal", "setting": "10.4 mg/kg IP, 24 hr, below LLOQ 10.04 ng/mL = zero", "result": "0.00 ng/mL (2×) and 14.58 ng/mL"}, {"measurement": "blood concentrations quantifiable up to", "setting": "52 mg/kg IP", "result": "up to 24 hr"}, {"measurement": "Blood Concentration, individual animal", "setting": "52 mg/kg IP, 0.08 hr", "result": "7841.88 ng/mL and 4635.35 ng/mL"}, {"measurement": "Blood Concentration, individual animal", "setting": "52 mg/kg IP, 0.25 hr", "result": "6058.02 ng/mL and 5694.33 ng/mL"}, {"measurement": "Blood Concentration, individual animal", "setting": "52 mg/kg IP, 0.5 hr", "result": "3520.30 ng/mL and 4708.54 ng/mL"}, {"measurement": "Blood Concentration, individual animal", "setting": "52 mg/kg IP, 1 hr", "result": "2031.75 ng/mL and 2659.04 ng/mL"}, {"measurement": "Blood Concentration, individual animal", "setting": "52 mg/kg IP, 2 hr", "result": "315.76 ng/mL and 238.47 ng/mL and 525.92 ng/mL"}, {"measurement": "Blood Concentration, individual animal", "setting": "52 mg/kg IP, 4 hr", "result": "442.67 ng/mL and 145.43 ng/mL and 125.55 ng/mL"}, {"measurement": "Blood Concentration, individual animal", "setting": "52 mg/kg IP, 8 hr", "result": "167.15 ng/mL and 107.02 ng/mL"}, {"measurement": "Blood Concentration, individual animal", "setting": "52 mg/kg IP, 24 hr, below LLOQ 10.04 ng/mL = zero", "result": "0.00 ng/mL (2×) and 10.38 ng/mL"}, {"measurement": "dose related increase in plasma exposure", "setting": "from 10.4 to 52 mg/kg IP", "result": 3.6, "unit": "fold"}, {"measurement": "concentration at 0.08 hr", "setting": "10.4 mg/kg, 10.4 mg/kg IP, 0.08 hr, read-out: Blood Concentration, Mean", "result": 1990, "unit": "ng/mL"}, {"measurement": "concentration at 0.08 hr", "setting": "10.4 mg/kg, 10.4 mg/kg IP, 0.08 hr, read-out: Blood Concentration, individual animal", "result": 1600, "unit": "ng/mL"}, {"measurement": "concentration at 0.25 hr", "setting": "10.4 mg/kg, 10.4 mg/kg IP, 0.25 hr, read-out: Blood Concentration, Mean", "result": 3810, "unit": "ng/mL"}, {"measurement": "concentration at 0.25 hr", "setting": "10.4 mg/kg, 10.4 mg/kg IP, 0.25 hr, read-out: Blood Concentration, individual animal", "result": 4440, "unit": "ng/mL"}, {"measurement": "concentration at 0.5 hr", "setting": "10.4 mg/kg, 10.4 mg/kg IP, 0.5 hr, read-out: Blood Concentration, Mean", "result": 681, "unit": "ng/mL"}, {"measurement": "concentration at 0.5 hr", "setting": "10.4 mg/kg, 10.4 mg/kg IP, 0.5 hr, read-out: Blood Concentration, individual animal", "result": 519, "unit": "ng/mL"}, {"measurement": "concentration at 1 hr", "setting": "10.4 mg/kg, 10.4 mg/kg IP, 1 hr, read-out: Blood Concentration, Mean", "result": 148, "unit": "ng/mL"}, {"measurement": "concentration at 1 hr", "setting": "10.4 mg/kg, 10.4 mg/kg IP, 1 hr, read-out: Blood Concentration, individual animal", "result": 158, "unit": "ng/mL"}, {"measurement": "concentration at 2 hr", "setting": "10.4 mg/kg, 10.4 mg/kg IP, 2 hr", "result": 88, "unit": "ng/mL"}, {"measurement": "concentration at 4 hr", "setting": "10.4 mg/kg, 10.4 mg/kg IP, 4 hr", "result": 86.4, "unit": "ng/mL"}, {"measurement": "concentration at 8 hr", "setting": "10.4 mg/kg, 10.4 mg/kg IP, 8 hr, read-out: Blood Concentration, Mean", "result": 22.6, "unit": "ng/mL"}, {"measurement": "concentration at 8 hr", "setting": "10.4 mg/kg, 10.4 mg/kg IP, 8 hr, read-out: Blood Concentration, individual animal", "result": 23.9, "unit": "ng/mL"}, {"measurement": "concentration at 24 hr", "setting": "10.4 mg/kg, 10.4 mg/kg IP, 24 hr", "result": 14.6, "unit": "ng/mL"}, {"measurement": "concentration at 0.08 hr", "setting": "52 mg/kg, 52 mg/kg IP, 0.08 hr, read-out: Blood Concentration, Mean", "result": 6160, "unit": "ng/mL"}, {"measurement": "concentration at 0.08 hr", "setting": "52 mg/kg, 52 mg/kg IP, 0.08 hr, read-out: Blood Concentration, individual animal", "result": 6000, "unit": "ng/mL"}, {"measurement": "concentration at 0.25 hr", "setting": "52 mg/kg, 52 mg/kg IP, 0.25 hr, read-out: Blood Concentration, Mean", "result": 5680, "unit": "ng/mL"}, {"measurement": "concentration at 0.25 hr", "setting": "52 mg/kg, 52 mg/kg IP, 0.25 hr, read-out: Blood Concentration, individual animal", "result": 5280, "unit": "ng/mL"}, {"measurement": "concentration at 0.5 hr", "setting": "52 mg/kg, 52 mg/kg IP, 0.5 hr, read-out: Blood Concentration, Mean", "result": 3820, "unit": "ng/mL"}, {"measurement": "concentration at 0.5 hr", "setting": "52 mg/kg, 52 mg/kg IP, 0.5 hr, read-out: Blood Concentration, individual animal", "result": 3230, "unit": "ng/mL"}, {"measurement": "concentration at 1 hr", "setting": "52 mg/kg, 52 mg/kg IP, 1 hr, read-out: Blood Concentration, Mean", "result": 2330, "unit": "ng/mL"}, {"measurement": "concentration at 1 hr", "setting": "52 mg/kg, 52 mg/kg IP, 1 hr, read-out: Blood Concentration, individual animal", "result": 2280, "unit": "ng/mL"}, {"measurement": "concentration at 2 hr", "setting": "52 mg/kg, 52 mg/kg IP, 2 hr", "result": 360, "unit": "ng/mL"}, {"measurement": "concentration at 4 hr", "setting": "52 mg/kg, 52 mg/kg IP, 4 hr", "result": 238, "unit": "ng/mL"}, {"measurement": "concentration at 8 hr", "setting": "52 mg/kg, 52 mg/kg IP, 8 hr, read-out: Blood Concentration, Mean", "result": 145, "unit": "ng/mL"}, {"measurement": "concentration at 8 hr", "setting": "52 mg/kg, 52 mg/kg IP, 8 hr, read-out: Blood Concentration, individual animal", "result": 160, "unit": "ng/mL"}, {"measurement": "concentration at 24 hr", "setting": "52 mg/kg, 52 mg/kg IP, 24 hr", "result": 10.4, "unit": "ng/mL"}, {"measurement": "AUC(0-inf)", "setting": "10.4 mg/kg IP", "result": 1950, "unit": "ng·h/mL"}, {"measurement": "AUC(0-t)", "setting": "10.4 mg/kg IP", "result": 1850, "unit": "ng·h/mL"}, {"measurement": "Cmax", "setting": "10.4 mg/kg IP", "result": 3810, "unit": "ng/mL"}, {"measurement": "Tmax", "setting": "10.4 mg/kg IP", "result": 15, "unit": "min"}, {"measurement": "AUC(0-inf)", "setting": "52 mg/kg IP", "result": 7640, "unit": "ng·h/mL"}, {"measurement": "AUC(0-t)", "setting": "52 mg/kg IP", "result": 6680, "unit": "ng·h/mL"}, {"measurement": "Cmax", "setting": "52 mg/kg IP", "result": 6160, "unit": "ng/mL"}, {"measurement": "Tmax", "setting": "52 mg/kg IP", "result": 4.8, "unit": "min"}]}
